Data set [1] has as its system all utilized cell lines. Kind of data set: Activity distribution between supernatant, wash and cells, summary over all utilized cell lines. It counts as in vitro ADME. To be noted: end of incubation period (2 h); range over cell lines. Here is the method:
HepG2 cells were cultured in DMEM GlutaMax (Gibco, Paisley, UK) with 10% fetal calf serum (FCS) and with selective antibiotics (penicillin/streptomycin for wildtype, Zeocin (InvivoGen, San Diego, CA, USA) for CYP1A2, and Blasticidin (Gibco, Carlsbad, CA, USA) for CYP2C19 and CYP3A4 cultures). As a negative control, cultures of CHO cultivated in Ham’s F-12 medium (Gibco) with 10% FCS and 2 mM glutamine were added for the radiotracer experiments. Cells were handled under a laminar flow hood (Thermo Scientific^TM Safe 2020, Langenselbold, Germany) and were split once or twice a week by trypsinization. Cell cultures were stored horizontally in a humidified incubator (Heracell240i) at 37 °C and 5% CO2. […] Cell density was determined with a cell counter (CASY® Model TT from Schärfe System, Reutlingen, Germany). […]
Initially, CYP-overexpressing HepG2 and, as controls, HepG2 wildtype, as well as CHO (Chinese hamster ovary) cells, were incubated as an adhered monolayer in a 96-well plate with a relatively high activity concentration of [^18F]1 (25 MBq/mL; workflow according to Figure 1A, upper panel), and the supernatant and cell lysates were investigated by radio-TLC. […] As a result (Table 1), the main fraction of activity was found in the supernatant (64–91%), while only a negligible to low amount of activity was measured in cell lysates (1–16%). […]

Data set [2] deals with HepG2 CYP2C19. The experiment in a line: Competitive coincubation of [18F]1 with competitors, HepG2 CYP2C19. To be noted: 1 h; without additional substances; 120–125 nM [18F]1. On the procedure: Radio thin-layer chromatography (radio-TLC) was carried out on reversed-phase TLC plates (ALUGRAM RP-18W/UV254 from Macherey-Nagel, Düren, Germany) with a mobile phase of 45% ACN in water containing 0.1% trifluoroacetic acid. The samples (2 µL) were spotted onto the TLC plate. The line of origin and the front line were labeled with 1/5 of the sample activity concentration. To track the Rf value of the intact radiotracer, each TLC was spotted with the intact tracer as reference in the middle. Detection of the activity signals was achieved after 10–30 min development on radioluminographic imaging plates (FUJIFILM, Tokyo, Japan) and subsequent readout with Fuji BAS 5000® or Amersham™ Typhoon™ from GE Healthcare (Uppsala, Sweden). The resulting chromatographic profile was analyzed and integrated with the help of AIDA Image Analysis Software (version 5.1). For data depiction, the fraction of each species (intact radiotracer, metabolite, [^18F]fluoride) was plotted.
Incubations were conducted for up to 2 h in a 96-well plate in KHB with a total incubation volume of 50 µL and an ethanol concentration of 0.4%. For the incubation with radiotracers, an activity of 100–200 kBq/well at the start of the experiment was used.
Our last interest within this study was to test if the tracer itself could function as an indicator for the conversion of other substrates acting via inhibition of or competition with the CYP enzymes. In this regard, alternative substrates were added to the incubation mixtures with [^18F]1. The investigated substrates covered testosterone, caffeine, progesterone, compound 3, tebufelone, and RWJ63556 [44] (10 µM for all substances). Furthermore, the influence of testosterone on the metabolic turnover of [^18F]1 was investigated over a concentration range of 1–50 µM.
Figure 7 Coincubation of [^18F]1 and different competitors with (A) HepG2 CYP1A2 and (B) HepG2 CYP2C19. […] Each competitor/inhibitor was incubated with [^18F]1 for 1 h followed by radio-TLC analysis. […]

For data set [3], the system named is HepG2 wildtype. The experiment in a line: Radiotracer metabolic stability, HepG2 wildtype, radio-TLC. To be noted: up to 2 h. It counts as in vitro ADME, human. Here is the method: CYP-overexpressing human hepatocellular carcinoma cells (HepG2) were previously generated on the basis of subcloning human CYP1A2 [18], CYP2C19 [20], and CYP3A4 [21] cDNA into a lentiviral expression vector. The cDNA expression in the resulting vector was controlled by the human cytomegalovirus (CMV) promoter. The lentivirus expression vectors were used to produce recombinant lentivirus particles according to standard methods to infect HepG2 cells. Infected cells were selected with 3 µg/mL blasticidin for CYP2C19 and CYP3A4 and 500 µg/mL zeocin for CYP1A2 overexpression 48 h after infection. Within 3–4 weeks, antibiotic-resistant cell colonies were picked to obtain single cell-derived HepG2 clones. For more detailed information on the generation procedure of CYP-overexpressing HepG2 cells, see Steinbrecht et al..
HepG2 cells were cultured in DMEM GlutaMax (Gibco, Paisley, UK) with 10% fetal calf serum (FCS) and with selective antibiotics (penicillin/streptomycin for wildtype, Zeocin (InvivoGen, San Diego, CA, USA) for CYP1A2, and Blasticidin (Gibco, Carlsbad, CA, USA) for CYP2C19 and CYP3A4 cultures). As a negative control, cultures of CHO cultivated in Ham’s F-12 medium (Gibco) with 10% FCS and 2 mM glutamine were added for the radiotracer experiments. […] Cell density was determined with a cell counter (CASY® Model TT from Schärfe System, Reutlingen, Germany). […]

As to `Cc1ccc(-c2cc(C[18F])nn2-c2ccc(S(C)(=O)=O)cc2)cc1` [[^18F]1, 3-([^18F]fluoromethyl)-1-[4-(methylsulfonyl)phenyl]-5-(p-tolyl)-1H-pyrazole], in data set [1], the “Fraction of activity in cell lysates” value is recorded as 1–16% and the “Fraction of activity in supernatant” value was 64–91%. Besides, in data set [2], the “Intact tracer [18F]1 remaining” value was determined as 11%. Moreover, the “Metabolic turnover / stability of radiotracer (in words)” value in data set [3] was “mainly intact radiotracer was found”.

The values above are taken from publication PMC9368227, “Investigation of Radiotracer Metabolic Stability In Vitro with CYP-Overexpressing Hepatoma Cell Lines” (Cells, 2022).
